Measured values taken from ChEMBL document CHEMBL4330134, “Design, synthesis, and bioevaluation of a novel class of (E)-4-oxo-crotonamide derivatives as potent antituberculosis agents” (Bioorg Med Chem Lett, 2019).
Converted amounts (≈) assume the structure as drawn.

Tested on: Mycobacterium tuberculosis
Experiment: Antimycobacterial activity against Mycobacterium tuberculosis H37Rv ATCC 27294 after 4 days by microplate Alamar blue assay
Format: functional
Conditions: H37Rv ATCC 27294, 96 h

Compound | MIC
CCOC(=O)/C=C/C(=O)C1CCCCC1 | > 4 µg/mL
COC(=O)/C=C/C(=O)c1cccc2ccccc12 | 0.45 µg/mL (≈ 1.87 µM)
Cc1ccc(C(=O)/C=C/C(=O)OCCNC(=O)OC(C)(C)C)cc1 | > 4 µg/mL
CCN(C)C(=O)/C=C/C(=O)c1ccc(F)cc1 | 0.25 µg/mL (≈ 1.06 µM)
CCCN(CCC)C(=O)/C=C/C(=O)c1ccc(-c2ccccc2)cc1 | 1.4 µg/mL (≈ 4.17 µM)
CCOC(=O)/C=C/C(=O)c1ccc(-c2ccccc2)cc1 | 0.23 µg/mL (≈ 0.82 µM)
CCN(C)C(=O)/C=C/C(=O)c1ccccc1[N+](=O)[O-] | 0.24 µg/mL (≈ 0.915 µM)
CC(=O)/C=C/C(=O)OC(C)C | 2.5 µg/mL (≈ 16 µM)
CCN(C)C(=O)/C=C/C(=O)c1ccc(Cl)c(Cl)c1 | 0.24 µg/mL (≈ 0.839 µM)
CCOC(=O)/C=C/C(=O)c1cc(OC)ccc1OC | 1.05 µg/mL (≈ 3.97 µM)
COc1ccc(C(=O)/C=C/C(=O)OCCNC(=O)OC(C)(C)C)cc1OC | > 4 µg/mL
CCN(C)C(=O)/C=C/C(=O)c1cccc(Br)c1 | 1.52 µg/mL (≈ 5.13 µM)
CC(C)OC(=O)/C=C/C(=O)c1ccc2c(c1)CCO2 | 1.02 µg/mL (≈ 3.92 µM)
COc1ccc(OC)c(C(=O)/C=C/C(=O)OC(C)C)c1 | 1.48 µg/mL (≈ 5.32 µM)
CCCN(CCC)C(=O)/C=C/C(=O)c1ccc(OCC)cc1 | 1.91 µg/mL (≈ 6.3 µM)
CCCN(CCC)C(=O)/C=C/C(=O)c1cccc(C(F)(F)F)c1 | > 2 µg/mL
CN(C)C(=O)/C=C/C(=O)c1ccccc1Cl | 0.84 µg/mL (≈ 3.53 µM)
CCOC(=O)/C=C/C(=O)c1ccc(Cl)cc1Cl | 1.09 µg/mL (≈ 3.99 µM)
CCOc1ccc(C(=O)/C=C/C(=O)OCCNC(=O)OC(C)(C)C)cc1 | 1.45 µg/mL (≈ 3.99 µM)
COc1cccc(C(=O)/C=C/C(=O)N(C)C)c1 | 1.62 µg/mL (≈ 6.94 µM)
CN(C)C(=O)/C=C/C(=O)c1cccc(Cl)c1 | 0.89 µg/mL (≈ 3.74 µM)
CCOC(=O)/C=C/C(=O)c1cccc2ccccc12 | 0.61 µg/mL (≈ 2.4 µM)
CC(C)OC(=O)/C=C/C(=O)c1ccccc1 | 0.78 µg/mL (≈ 3.57 µM)

Compound | MIC
CC(C)OC(=O)/C=C/C(=O)c1ccc(Cl)cc1Cl | 1.01 µg/mL (≈ 3.52 µM)
CCN(C)C(=O)/C=C/C(=O)c1ccccc1Cl | 0.65 µg/mL (≈ 2.58 µM)
CCOc1ccc(C(=O)/C=C/C(=O)N(C)CC)cc1 | 0.48 µg/mL (≈ 1.84 µM)
CC(C)OC(=O)/C=C/C(=O)c1ccc(OCc2ccccc2)cc1 | 1.14 µg/mL (≈ 3.51 µM)
O=C(O)/C=C/C(=O)c1ccco1 | > 4 µg/mL
CN(C)C(=O)/C=C/C(=O)c1cccc([N+](=O)[O-])c1 | > 2 µg/mL
CCCN(CCC)C(=O)/C=C/C(=O)c1ccc(OC)cc1 | 1.89 µg/mL (≈ 6.53 µM)
COc1ccccc1C(=O)/C=C/C(=O)OCCNC(=O)OC(C)(C)C | > 4 µg/mL
CN(C)C(=O)/C=C/C(=O)c1ccc2c(c1)OCO2 | 0.79 µg/mL (≈ 3.2 µM)
O=C(O)/C=C/C(=O)c1ccc2c(c1)OCO2 | > 4 µg/mL
CC(C)OC(=O)/C=C/C(=O)c1ccc(-c2ccccc2)cc1 | 0.24 µg/mL (≈ 0.815 µM)
COC(=O)/C=C/C(=O)C1CC1 | > 4 µg/mL
COC(=O)/C=C/C(=O)c1ccc(Cl)cc1Cl | 1.85 µg/mL (≈ 7.14 µM)
CCOC(=O)/C=C/C(=O)c1ccc(OCC)cc1 | 0.54 µg/mL (≈ 2.17 µM)
CC(C)(C)OC(=O)NCCOC(=O)/C=C/C(=O)c1ccc2c(c1)CCO2 | > 4 µg/mL
COC(=O)/C=C/C(=O)c1cc(OC)ccc1OC | 0.88 µg/mL (≈ 3.52 µM)
CC(=O)/C=C/C(=O)O | > 4 µg/mL
COc1ccc(C(=O)/C=C/C(=O)O)cc1OC | > 4 µg/mL
CC(C)(C)OC(=O)NCCOC(=O)/C=C/C(=O)c1ccc2c(c1)OCO2 | > 4 µg/mL
CN(C)C(=O)/C=C/C(=O)c1ccc(F)cc1 | 0.47 µg/mL (≈ 2.12 µM)
CCOC(=O)/C=C/C(=O)c1ccccc1 | 0.82 µg/mL (≈ 4.02 µM)
COC(=O)/C=C/C(=O)c1ccco1 | 0.52 µg/mL (≈ 2.89 µM)
COC(=O)/C=C/C(=O)c1ccc(OC)c(OC)c1 | 0.44 µg/mL (≈ 1.76 µM)

Compound | MIC
CCCN(CCC)C(=O)/C=C/C(=O)c1ccccc1Cl | > 2 µg/mL
CN(C)C(=O)/C=C/C(=O)c1ccc([N+](=O)[O-])cc1 | 0.93 µg/mL (≈ 3.75 µM)
O=C(O)/C=C/C(=O)c1ccc(Br)cc1 | > 4 µg/mL
COC(=O)/C=C/C(C)=O | 0.86 µg/mL (≈ 6.71 µM)
CCOC(=O)/C=C/C(=O)c1ccc(OC)c(OC)c1 | 0.82 µg/mL (≈ 3.1 µM)
COC(=O)/C=C/C(=O)c1ccc(OCc2ccccc2)cc1 | 0.67 µg/mL (≈ 2.26 µM)
O=C(O)/C=C/C(=O)c1ccc(-c2ccccc2)cc1 | > 4 µg/mL
COc1cccc(C(=O)/C=C/C(=O)O)c1 | > 4 µg/mL
CC(C)(C)OC(=O)NCCOC(=O)/C=C/C(=O)c1ccc(Cl)cc1Cl | > 4 µg/mL
CCN(C)C(=O)/C=C/C(=O)c1ccc([N+](=O)[O-])cc1 | 1.7 µg/mL (≈ 6.48 µM)
COc1ccccc1C(=O)/C=C/C(=O)N(C)C | 0.92 µg/mL (≈ 3.94 µM)
CN(C)C(=O)/C=C/C(=O)c1ccc(Cl)cc1Cl | 0.41 µg/mL (≈ 1.51 µM)
COc1cccc(C(=O)/C=C/C(=O)OCCNC(=O)OC(C)(C)C)c1 | > 4 µg/mL
CN(C)C(=O)/C=C/C(=O)c1cccc(Br)c1 | 0.96 µg/mL (≈ 3.4 µM)
COc1ccccc1C(=O)/C=C/C(=O)OC(C)C | 1.91 µg/mL (≈ 7.69 µM)
CN(C)C(=O)/C=C/C(=O)c1ccc(Cl)cc1 | 0.38 µg/mL (≈ 1.6 µM)
CCN(C)C(=O)/C=C/C(=O)c1cccc([N+](=O)[O-])c1 | > 2 µg/mL
CCCN(CCC)C(=O)/C=C/C(=O)c1ccccc1[N+](=O)[O-] | 1.24 µg/mL (≈ 4.07 µM)
CCN(C)C(=O)/C=C/C(=O)c1cccc(Cl)c1 | 0.97 µg/mL (≈ 3.85 µM)
COc1ccc(OC)c(C(=O)/C=C/C(=O)O)c1 | > 4 µg/mL
CCCN(CCC)C(=O)/C=C/C(=O)c1ccc(F)cc1 | 0.95 µg/mL (≈ 3.43 µM)
O=C(O)/C=C/C(=O)c1cccc2ccccc12 | > 4 µg/mL
CC(C)(C)OC(=O)NCCOC(=O)/C=C/C(=O)c1ccc(Oc2ccccc2)cc1 | > 4 µg/mL

Compound | MIC
CC(C)OC(=O)/C=C/C(=O)C1CC1 | 0.68 µg/mL (≈ 3.73 µM)
O=C(O)/C=C/C(=O)c1ccc(Oc2ccccc2)cc1 | > 4 µg/mL
CCOC(=O)/C=C/C(=O)c1ccc2c(c1)CCO2 | 0.94 µg/mL (≈ 3.82 µM)
CCCN(CCC)C(=O)/C=C/C(=O)c1cccc([N+](=O)[O-])c1 | > 2 µg/mL
CC(C)(C)OC(=O)NCCOC(=O)/C=C/C(=O)C1CCCCC1 | > 4 µg/mL
CN(C)C(=O)/C=C/C(=O)c1ccc(Br)cc1 | 0.25 µg/mL (≈ 0.886 µM)
COC(=O)/C=C/C(=O)c1ccc(-c2ccccc2)cc1 | 0.2 µg/mL (≈ 0.751 µM)
CCOC(=O)/C=C/C(=O)c1ccc(Br)cc1 | 0.52 µg/mL (≈ 1.84 µM)
CCCN(CCC)C(=O)/C=C/C(=O)c1ccc2c(c1)OCO2 | > 2 µg/mL
CC(C)(C)OC(=O)NCCOC(=O)/C=C/C(=O)c1ccc(-c2ccccc2)cc1 | 1.23 µg/mL (≈ 3.11 µM)
NNC(=O)c1ccncc1 [ISONIAZID] | 0.025 µg/mL (≈ 0.182 µM)
COC(=O)/C=C/C(=O)C1CCCCC1 | 1.2 µg/mL (≈ 6.11 µM)
CCOC(=O)/C=C/C(=O)c1ccc([N+](=O)[O-])cc1 | 0.48 µg/mL (≈ 1.93 µM)
COc1ccc(C(=O)/C=C/C(=O)OC(C)C)cc1 | 1.64 µg/mL (≈ 6.61 µM)
CC(C)(C)OC(=O)NCCOC(=O)/C=C/C(=O)c1ccco1 | > 4 µg/mL
COc1cccc(C(=O)/C=C/C(=O)OC(C)C)c1 | 0.92 µg/mL (≈ 3.71 µM)
CCCN(CCC)C(=O)/C=C/C(=O)c1ccc(Cl)c(Cl)c1 | 0.88 µg/mL (≈ 2.68 µM)
CCN(C)C(=O)/C=C/C(=O)c1ccc(Cl)cc1Cl | > 2 µg/mL
CC(C)OC(=O)/C=C/C(=O)c1ccc(Br)cc1 | 0.41 µg/mL (≈ 1.38 µM)
CCCN(CCC)C(=O)/C=C/C(=O)c1ccc(Cl)cc1 | 1.67 µg/mL (≈ 5.68 µM)
CC(C)OC(=O)/C=C/C(=O)c1ccc2c(c1)OCO2 | 0.87 µg/mL (≈ 3.32 µM)
CCN(C)C(=O)/C=C/C(=O)c1cccc(F)c1 | 0.48 µg/mL (≈ 2.04 µM)
CC(C)(C)OC(=O)NCCOC(=O)/C=C/C(=O)c1ccc(OCc2ccccc2)cc1 | 1.91 µg/mL (≈ 4.49 µM)

Compound | MIC
CCOc1ccc(C(=O)/C=C/C(=O)OC(C)C)cc1 | 0.47 µg/mL (≈ 1.79 µM)
COc1ccc(OC)c(C(=O)/C=C/C(=O)OCCNC(=O)OC(C)(C)C)c1 | > 4 µg/mL
COC(=O)/C=C/C(=O)c1ccccc1 | 0.86 µg/mL (≈ 4.52 µM)
CC(C)(C)OC(=O)NCCOC(=O)/C=C/C(=O)c1cccc2ccccc12 | > 4 µg/mL
O=C(O)/C=C/C(=O)C1CCCCC1 | > 4 µg/mL
COC(=O)/C=C/C(=O)c1ccc(Br)cc1 | 0.49 µg/mL (≈ 1.82 µM)
CCN(C)C(=O)/C=C/C(=O)c1ccc(Cl)cc1 | 0.24 µg/mL (≈ 0.953 µM)
CCOC(=O)/C=C/C(=O)c1cccc(OC)c1 | 0.82 µg/mL (≈ 3.5 µM)
COC(=O)/C=C/C(=O)c1ccc([N+](=O)[O-])cc1 | 0.54 µg/mL (≈ 2.3 µM)
CC(C)OC(=O)/C=C/C(=O)c1ccco1 | 0.65 µg/mL (≈ 3.12 µM)
CCOC(=O)/C=C/C(=O)c1ccccc1OC | 1.82 µg/mL (≈ 7.77 µM)
O=C(O)/C=C/C(=O)C1CC1 | > 4 µg/mL
O=C(O)/C=C/C(=O)c1ccc(OCc2ccccc2)cc1 | > 4 µg/mL
CCOC(=O)/C=C/C(=O)c1ccc(OCc2ccccc2)cc1 | 0.96 µg/mL (≈ 3.09 µM)
CN(C)C(=O)/C=C/C(=O)c1ccccc1F | 0.95 µg/mL (≈ 4.29 µM)
CCCN(CCC)C(=O)/C=C/C(=O)c1ccccc1F | 0.94 µg/mL (≈ 3.39 µM)
CCCN(CCC)C(=O)/C=C/C(=O)c1cccc(F)c1 | 0.96 µg/mL (≈ 3.46 µM)
CCN(C)C(=O)/C=C/C(=O)c1ccccc1OC | 0.95 µg/mL (≈ 3.84 µM)
CN(C)C(=O)/C=C/C(=O)c1cccc(C(F)(F)F)c1 | 1.95 µg/mL (≈ 7.19 µM)
COc1ccc(C(=O)/C=C/C(=O)N(C)C)cc1 | 0.38 µg/mL (≈ 1.63 µM)
CC(C)(C)OC(=O)NCCOC(=O)/C=C/C(=O)c1ccc(Br)cc1 | > 4 µg/mL
CC(C)OC(=O)/C=C/C(=O)c1cccc2ccccc12 | 0.69 µg/mL (≈ 2.57 µM)
